The source of these data is patent US10131657B2, “Bromodomain inhibitors” (AbbVie Inc., priority 2013, dated 2018).

SMILES strings stand for the structures.

In the assay the test system is breast cancer cell line MX-1. The assay is described as follows: MX-1 cell line proliferation assay, Method A. In kind it is cell-based. The conditions noted are these: Homo sapiens, MX1; MX-1 cells, 96-well, 72 hours, Cell Titer Glo; read-out: Cellular proliferation: EC50 Method A. The protocol:
The impact of compounds of the Examples on cancer cell proliferation was determined using the breast cancer cell line MX-1 (ATCC) in a 3-day proliferation assay and the data are reported in Table 1.
MX-1 cells were maintained in RPMI 1640 medium (Sigma) supplemented with 10% FBS at 37° C. and an atmosphere of 5% CO2. For compound testing, MX-1 cells were plated in 96-well black bottom plates at a density of 5000 cells/well in 90 μL of culture media and incubated at 370 overnight to allow cell adhesion and spreading. Compound dilution series were prepared in DMSO via a 3-fold serial dilution from 3 mM to 0.1 μM. The DMSO dilution series were then diluted 1:100 in phosphate buffered saline, and 10 μL of the resulted solution were added to the appropriate wells of the MX-1 cell plate. The final compound concentrations in the wells were 3, 1, 0.3, 0.1, 0.03, 0.01, 0.003, 0.001, 0.0003 and 0.0001 μM.
Luminescence readings from the Cell Titer Glo assay were normalized to the DMSO treated cells and analyzed using the GraphPad Prism software with sigmoidal curve fitting to obtain ECs50s. The minimum significant ratio (MSR) was determined to evaluate assay reproducibility (Eastwood et al., (2006) J Biomol Screen, 11: 253-261).
Background: Cellular ATP, detected with luciferase, serves as a proxy for viable cell number.
As for `Cc1cc(-c2ccc(-c3cn(C)c(=O)c4[nH]ccc34)c(OCC3CC3)c2)[nH]n1` [Example 1, 4-[2-(cyclopropylmethoxy)-4-(3-methyl-1H-pyrazol-5-yl)phenyl]-6-methyl-1,6-dihydro-7H-pyrrolo[2,3-c]pyridin-7-one], the EC50 turned out to be 0.151 µM.

Take `CCS(=O)(=O)Nc1cc(-c2cn(C)c(=O)c3[nH]ccc23)c(Oc2ccc(F)cc2F)cc1CN(C)C` [Example 2, N-[4-(2,4-difluorophenoxy)-2-[(dimethylamino)methyl]-5-(6-methy-7-oxo-6,7-dihydro-1H-pyrrolo[2,3-c]pyridin-4-yl)phenyl]ethanesulfonamide]: the EC50 was 0.11 µM. As for `CCS(=O)(=O)Nc1cc(-c2cn(C)c(=O)c3[nH]ccc23)c(Oc2ccc(F)cc2F)cc1CN1CCCCC1` [Example 3, N-[4-(2,4-difluorophenoxy)-5-(6-methyl-7-oxo-6,7-dihydro-1H-pyrrolo[2,3-c]pyridin-4-yl)-2-(piperidin-1-ylmethyl)phenyl]ethanesulfonamide], the EC50 was 0.0368 µM. In the case of `CCS(=O)(=O)Nc1cc(-c2cn(C)c(=O)c3[nH]ccc23)c(Oc2ccc(F)cc2F)cc1CN1CCOCC1` [Example 4, N-[4-(2,4-difluorophenoxy)-5-(6-methyl-7-oxo-6,7-dihydro-1H-pyrrolo[2,3-c]pyridin-4-yl)-2-(morpholin-4-ylmethyl)phenyl]ethanesulfonamide] it was 0.0163 µM; in that of `CCS(=O)(=O)Nc1cc(-c2cn(C)c(=O)c3[nH]ccc23)c(Oc2ccc(F)cc2F)cc1CN1CCN(C)CC1` [Example 5, N-{4-(2,4-difluorophenoxy)-5-(6-methyl-7-oxo-6,7-dihydro-1H-pyrrolo[2,3-c]pyridin-4-yl)-2-[(4-methylpiperazin-1-yl)methyl]phenyl}ethanesulfonamide], 0.0401 µM; in that of `CCS(=O)(=O)Nc1cc(-c2cn(C)c(=O)c3[nH]ccc23)c(Oc2ccc(F)cc2F)cc1CO` [Example 6, N-[4-(2,4-difluorophenoxy)-2-(hydroxymethyl)-5-(6-methyl-7-oxo-6,7-dihydro-1H-pyrrolo[2,3-c]pyridin-4-yl)phenyl]ethanesulfonamide], 0.0291 µM. In the case of `CCS(=O)(=O)Nc1cc(-c2cn(C)c(=O)c3[nH]ccc23)c(Oc2ccc(F)cc2F)cc1CNC1CCCC1` [Example 7, N-{2-[(cyclopentylamino)methyl]-4-(2,4-difluorophenoxy)-5-(6-methyl-7-oxo-6,7-dihydro-1H-pyrrolo[2,3-c]pyridin-4-yl)phenyl}ethanesulfonamide] it was 0.139 µM.

For the compound `CCS(=O)(=O)Nc1cc(-c2cn(C)c(=O)c3[nH]ccc23)c(Oc2ccc(F)cc2F)cc1C(N)=O` [Example 8, 5-(2,4-difluorophenoxy)-2-[(ethylsulfonyl)amino]-4-(6-methyl-7-oxo-6,7-dihydro-1H-pyrrolo[2,3-c]pyridin-4-yl)benzamide], the EC50 was found to be 0.0449 µM. As to `CCS(=O)(=O)Nc1cc(-c2cn(C)c(=O)c3[nH]ccc23)c(Oc2ccc(F)cc2F)cc1C(=O)NC1CCCC1` [Example 9, N-cyclopentyl-5-(2,4-difluorophenoxy)-2-[(ethylsulfonyl)amino]-4-(6-methyl-7-oxo-6,7-dihydro-1H-pyrrolo[2,3-c]pyridin-4-yl)benzamide], the EC50 came to 0.0653 µM. As to `CCS(=O)(=O)Nc1cc(-c2cn(C)c(=O)c3[nH]ccc23)c(Oc2ccc(F)cc2F)cc1C(=O)N(C)C` [Example 10, 5-(2,4-difluorophenoxy)-2-[(ethylsulfonyl)amino]-N,N-dimethyl-4-(6-methyl-7-oxo-6,7-dihydro-1H-pyrrolo[2,3-c]pyridin-4-yl)benzamide], the EC50 turned out to be 0.0982 µM. Consider `CCS(=O)(=O)Nc1cc(-c2cn(C)c(=O)c3[nH]ccc23)c(Oc2ccc(F)cc2F)cc1C(=O)O` [Example 11, 5-(2,4-difluorophenoxy)-2-[(ethylsulfonyl)amino]-4-(6-methyl-7-oxo-6,7-dihydro-1H-pyrrolo[2,3-c]pyridin-4-yl)benzoic acid], for which the EC50 is 0.452 µM. In the case of `CCS(=O)(=O)Nc1cc(-c2cn(C)c(=O)c3[nH]ccc23)c(Oc2ccc(F)cc2F)cc1C(=O)NC1CCOCC1` [Example 12, 5-(2,4-difluorophenoxy)-2-[(ethylsulfonyl)amino]-4-(6-methyl-7-oxo-6,7-dihydro-1H-pyrrolo[2,3-c]pyridin-4-yl)-N-(tetrahydro-2H-pyran-4-yl)benzamide] it was 0.0684 µM; in that of `CCS(=O)(=O)Nc1cc(-c2cn(C)c(=O)c3[nH]ccc23)c(Oc2ccc(F)cc2F)cc1CNCCO` [Example 13, N-[4-(2,4-difluorophenoxy)-2-{[(2-hydroxyethyl)amino]methyl}-5-(6-methyl-7-oxo-6,7-dihydro-1H-pyrrolo[2,3-c]pyridin-4-yl)phenyl]ethanesulfonamide], 0.307 µM; in that of `CCS(=O)(=O)Nc1cc(-c2cn(C)c(=O)c3[nH]ccc23)c(Oc2ccc(F)cc2F)cc1CN1CCCC1c1ccccc1` (stereo not shown) [Example 14, N-{4-(2,4-difluorophenoxy)-5-(6-methyl-7-oxo-6,7-dihydro-1H-pyrrolo[2,3-c]pyridin-4-yl)-2-[(2-phenylpyrrolidin-1-yl)methyl]phenyl}ethanesulfonamide], 0.184 µM. `CCS(=O)(=O)Nc1cc(-c2cn(C)c(=O)c3[nH]ccc23)c(Oc2ccc(F)cc2F)c(C2CC2)c1` [Example 15, N-[3-cyclopropyl-4-(2,4-difluorophenoxy)-5-(6-methyl-7-oxo-6,7-dihydro-1H-pyrrolo[2,3-c]pyridin-4-yl)phenyl]ethanesulfonamide]: the EC50 worked out at 0.105 µM.

On to `CCS(=O)(=O)c1ccc(OCC2CC2(F)F)c(-c2cn(C)c(=O)c3[nH]c(CN4CCN(c5ccncc5)CC4)cc23)c1` (stereo not shown) [Example 16, 4-{2-[(2,2-difluorocyclopropyl)methoxy]-5-(ethylsulfonyl)phenyl}-6-methyl-2-{[4-(pyridin-4-yl)piperazin-1-yl]methyl}-1,6-dihydro-7H-pyrrolo[2,3-c]pyridin-7-one], for which the EC50 came to 0.202 µM. In the case of `CCS(=O)(=O)c1ccc(OCC2CC2(F)F)c(-c2cn(C)c(=O)c3[nH]c(CN4CCN(c5cccnc5)CC4)cc23)c1` (stereo not shown) [Example 20, 4-{2-[(2,2-difluorocyclopropyl)methoxy]-5-(ethylsulfonyl)phenyl}-6-methyl-2-{[4-(pyridin-3-yl)piperazin-1-yl]methyl}-1,6-dihydro-7H-pyrrolo[2,3-c]pyridin-7-one], the EC50 amounted to 0.101 µM. Regarding `Cn1cc(-c2cc(S(C)(=O)=O)ccc2Oc2cccc(C(=O)NC3CC3)c2)c2cc[nH]c2c1=O` [Example 21, N-cyclopropyl-3-[2-(6-methyl-7-oxo-6,7-dihydro-1H-pyrrolo[2,3-c]pyridin-4-yl)-4-(methylsulfonyl)phenoxy]benzamide], the EC50 was determined as 0.487 µM. In the case of `CN1CCN(C(=O)c2cccc(Oc3ccc(S(C)(=O)=O)cc3-c3cn(C)c(=O)c4[nH]ccc34)c2)CC1` [Example 22, 6-methyl-4-[2-{3-[(4-methylpiperazin-1-yl)carbonyl]phenoxy}-5-(methylsulfonyl)phenyl]-1,6-dihydro-7H-pyrrolo[2,3-c]pyridin-7-one] it was above 1 µM. As to `Cn1cc(-c2cc(S(C)(=O)=O)ccc2Oc2cccc(C(=O)N3CCN(CCn4ccnc4)CC3)c2)c2cc[nH]c2c1=O` [Example 23, 4-{2-[3-({4-[2-(1H-imidazol-1-yl)ethyl]piperazin-1-yl}carbonyl)phenoxy]-5-(methylsulfonyl)phenyl}-6-methyl-1,6-dihydro-7H-pyrrolo[2,3-c]pyridin-7-one], the EC50 was above 1 µM.

Turning to `Cn1cc(-c2cc(S(C)(=O)=O)ccc2Oc2cccc(C(=O)N3CCC(N4CCCC4)CC3)c2)c2cc[nH]c2c1=O` [Example 24, 6-methyl-4-[5-(methylsulfonyl)-2-(3-{[4-(pyrrolidin-1-yl)piperidin-1-yl]carbonyl}phenoxy)phenyl]-1,6-dihydro-7H-pyrrolo[2,3-c]pyridin-7-one], the EC50 was above 1 µM. With `Cn1cc(-c2cc(S(C)(=O)=O)ccc2Oc2cccc(C(=O)NC3CCCCC3)c2)c2cc[nH]c2c1=O` [Example 25, N-cyclohexyl-3-[2-(6-methyl-7-oxo-6,7-dihydro-1H-pyrrolo[2,3-c]pyridin-4-yl)-4-(methylsulfonyl)phenoxy]benzamide], the EC50 worked out at 0.134 µM. For `Cn1cc(-c2cc(S(C)(=O)=O)ccc2Oc2cccc(C(=O)NCCCN3CCCC3=O)c2)c2cc[nH]c2c1=O` [Example 27, 3-[2-(6-methyl-7-oxo-6,7-dihydro-1H-pyrrolo[2,3-c]pyridin-4-yl)-4-(methylsulfonyl)phenoxy]-N-[3-(2-oxopyrrolidin-1-yl)propyl]benzamide] the value was 0.442 µM; for `Cn1cc(-c2cc(S(C)(=O)=O)ccc2Oc2cccc(C(=O)N3CCN(C4CCCC4)CC3)c2)c2cc[nH]c2c1=O` [Example 28, 4-[2-{3-[(4-cyclopentylpiperazin-1-yl)carbonyl]phenoxy}-5-(methylsulfonyl)phenyl]-6-methyl-1,6-dihydro-7H-pyrrolo[2,3-c]pyridin-7-one], 0.195 µM. In the case of `CN(C)CCN1CCN(C(=O)c2cccc(Oc3ccc(S(C)(=O)=O)cc3-c3cn(C)c(=O)c4[nH]ccc34)c2)CC1` [Example 29, 4-{2-[3-({4-[2-(dimethylamino)ethyl]piperazin-1-yl}carbonyl)phenoxy]-5-(methylsulfonyl)phenyl}-6-methyl-1,6-dihydro-7H-pyrrolo[2,3-c]pyridin-7-one] it was above 1 µM.
